From PubChem BioAssay (NCI) come the findings set out here.

Structures are written as SMILES.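 In this assay, cells in 96-well plates receive the compound at five concentrations for 48 hours. Endpoints are linearly interpolated between the surrounding concentrations. GI50 is the concentration that inhibits growth by half. TGI marks complete inhibition of growth.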 Bounds are passed on as bounds.

Assay in all cases: inhibition of tumour cell growth, NCI panel, 48 h
Assay [1] deals with MDA-MB-231 breast.
Assay [2] relates to NCI/ADR-RES ovarian.
The test system of assay [3] is PC-3 prostate.
The test system of assay [4] is T-47D breast.
Assay [5] deals with MDA-N.
The test system of assay [6] is HS 578T breast.

As to `CSCCCN(CCCSC)CCCSC`, the TGI in assay [1], in assay [2], in assay [3], in assay [4] and in assay [5] was more than 100 µM each time.

As for `CNC(=O)c1ccccc1Nc1nc(Nc2ccc(N3CCOCC3)cc2OC)ncc1Cl`, the GI50 was 1.7 µM in assay [6]; 1.09 µM in assay [1]; 1.11 µM in assay [2]; 1.39 µM in assay [3]; 1.28 µM in assay [4]. Moreover, the TGI was more than 26.4 µM in assay [6]; 5.26 µM in assay [1]; more than 50.7 µM in assay [2]; more than 66.9 µM in assay [3]; more than 36.1 µM in assay [4].

Regarding `C=C(CNCCO)[C@@H]1CC[C@]2(CO)CC[C@]3(C)[C@H](CC[C@@H]4[C@@]5(C)CCC(N)C(C)(C)[C@@H]5CC[C@]43C)[C@@H]12` (some centres undefined), the GI50 was 2.33 µM in assay [6]; 1.52 µM in assay [1]; 17 µM in assay [2]; 2.36 µM in assay [3]; 2.07 µM in assay [4]. Besides, the TGI in assay [6] worked out at 6.92 µM; in assay [1], 3.14 µM; in assay [2] it was 33.8 µM; in assay [3], 11.2 µM; in assay [4], 3.95 µM.

With `C[C@@H](CS(C)(=O)=O)Nc1ncc2cc(Oc3ccc(F)cc3F)c(=O)n(C)c2n1`, the GI50 in assay [6], in assay [1], in assay [2], in assay [3] and in assay [4] was more than 25 µM throughout. Besides, the TGI in assay [6], in assay [1], in assay [2], in assay [3] and in assay [4] was more than 25 µM each time.

Take `CCc1ccc2c(c1)C(=O)c1c-2n(CCCBr)c(=O)c2cc([N+](=O)[O-])ccc12`: the GI50 in assay [6] is 18.2 µM; in assay [1] it was 45.7 µM; in assay [2] it was more than 50 µM; in assay [3], more than 50 µM; in assay [4], more than 50 µM. For the same compound, the TGI in assay [6], in assay [1], in assay [2], in assay [3] and in assay [4] was more than 50 µM throughout.

Regarding `NC(CSC(c1ccccc1)(c1ccccc1)c1ccc2c(c1)OCO2)C(=O)O` (centres undefined), the GI50 in assay [6] is 0.392 µM; in assay [1], 0.365 µM; in assay [2] it was 4.12 µM; in assay [3], 0.521 µM; in assay [4], 0.597 µM. Further, the TGI was 24.6 µM in assay [6]; 14.4 µM in assay [1]; 26.8 µM in assay [2]; more than 69.6 µM in assay [3]; more than 67.9 µM in assay [4].

Regarding `Nc1cc2nc3ccccc3sc-2cc1=O`, the GI50 in assay [6] was 2.21 µM; in assay [1] it was 1.76 µM; in assay [2] it was 2.96 µM; in assay [3] it was 1.51 µM; in assay [4], 5.96 µM. In addition, the TGI in assay [6] worked out at 6.24 µM; in assay [1], 11.8 µM; in assay [2], 16.7 µM; in assay [3], 21.8 µM; in assay [4], 33.7 µM.

With `Cc1cc2nc(C(Cl)Cl)nc(-c3ccc(Cl)cc3)n2n1`, the GI50 is 1.34 µM in assay [6]; 1.23 µM in assay [1]; 0.682 µM in assay [2]; 1.33 µM in assay [3]; 2.19 µM in assay [4]. The TGI is 4.6 µM in assay [6]; 4.21 µM in assay [1]; 3.89 µM in assay [2]; 4.16 µM in assay [3]; more than 26.3 µM in assay [4].

For the compound `Clc1cccc(Cc2cn3cc(-c4ccccc4)nc3s2)c1Cl`, the GI50 in assay [6] was 17.4 µM; in assay [1], 3.08 µM; in assay [2] it was 76.4 µM; in assay [3], 53.7 µM; in assay [4], 0.963 µM. For the same compound, the TGI in assay [6], in assay [1], in assay [2], in assay [3] and in assay [4] was more than 100 µM throughout.

Regarding `c1cc2c(cc1NC1=NCCO1)CCC2`, the TGI in assay [6], in assay [3], in assay [4] and in assay [5] was more than 10 µM each time.

With `O=C(Nc1ccc(F)cc1F)c1cc(I)ccc1O`, the GI50 in assay [6] was 2.37 µM; in assay [1] it was 1.87 µM; in assay [2], 2.92 µM; in assay [3], 2.53 µM; in assay [4], 1.99 µM. Besides, the TGI in assay [6] was found to be 8.07 µM; in assay [1], 5.8 µM; in assay [2], 33.1 µM; in assay [3], 8.73 µM; in assay [4] it was 6.8 µM.

As for `O=C1/C(=C/c2ccc([N+](=O)[O-])cc2)COc2ccc(O)c(O)c21`, the GI50 in assay [6] was 1.94 µM; in assay [1], 1.33 µM; in assay [2], 2.66 µM; in assay [3], 1.59 µM; in assay [4], 1.32 µM. The TGI is 4.75 µM in assay [6]; 2.81 µM in assay [1]; 9.33 µM in assay [2]; 4.53 µM in assay [3]; 3.65 µM in assay [4].
